US9169492B2, “Compositions and methods for enhanced parvovirus transduction” (priority 2011, dated 2015)
Peptide text beside a SMILES is read from it. * marks the point of attachment. Cbz = O=C(OCc1ccccc1)*

Tests used:
[1] = test system: FVIII−/− mice; experiment: Canine FVIII activity (Coatest) in plasma of hemophilia A mice after portal vein AAV.cFVIII with or without proteasome inhibitor; assay type: in vivo, mouse; conditions: for week at which FVIII activity became detectable: AAV2.cFVIII vector, drug rows = co-administered with this vector (FIG. 2C); for enhanced factor VIII expression on average: hemophilia mice
Experimental: (§1) To avoid anticipated antibody-mediated immune responses to the canine FVIII transgene, all FVIII^−/− mice received cyclophosphamide (Sigma Aldrich, St Louis, Mo.) injected intraperitoneally in 3 doses of 100 μg each on days −3, 0, and +3, as previously described^5.
(§2) Canine FVIII activity in mouse plasma was measured by the Coatest SP4 kit (Chromogenix, DiPharma, West Chester, Ohio) following the manufacture's instruction with modification. Normal canine plasma (regarded as 100 percent activity=1 IU/ml) was serially diluted into FVIII^−/− pooled mouse plasma to generate the standard curve. Neutralizing antibodies to canine FVIII in mouse were measured by the Bethesda assay using a START 4 Coagulation Analyzer as described^42 (Diagnostica Stago, Asnières, France). Human factor IX was measured based on one-stage factor IX activity assay (FIX-specific aPTT) as previously described, using a START 4 Coagulation Analyzer (Diagnostica Stago, Asnières, France)^43.
Studies were carried out to analyze the effect of combination therapy using large transgene cassette FVIII in hemophilic A mice using the same genetic background (C57B1/6). […] Virus was characterized for total particle number by qPCR, virion integrity by electron microscopy, capsid ratio by silver stain, and DNA genome size by alkaline gel electrophoresis.

[2] = test system: FIX−/− mice; experiment: Human factor IX activity (one-stage FIX-specific aPTT) in hemophilia B mice after portal vein AAV.hFIX with or without bortezomib; assay type: in vivo, mouse; conditions: 20 weeks
Experimental: as §1, §2
Studies were conducted to test the effect of combination therapy using bortezomib on in vivo correction of hemophilic animals. First, a vector carrying a genome approximately the same size as wild type AAV was used for the correction of hemophilia B in a mouse model. […]

[3] = test system: FVIII−/− mice; experiment: Liver ALT, AST and complete blood counts in vector-treated hemophilia A mice; assay type: in vivo, mouse; conditions: mice receiving vector alone or in combination with bortezomib
Description: In these mice, canine factor VIII peaked at 8 weeks, then began to decrease. […] Bortezomib co-administration improved initial and sustained canine factor VIII expression. […] To facilitate comparison of the proteasome inhibitor effect upon vectors generated from wtAAV-sized factor IX transgene and oversized factor VIII transgene, the same time points are graphed in FIGS. 2A and 2B (factor IX) and FIGS. 2C and 2D (factor VIII). Bortezomib treatment was associated with a proportionately greater augmentation of the oversize transgene expression than that of the smaller transgene.

[4] = preclinical toxicity data (ref 23); cited from earlier work
[5] = test system: 293T cells; experiment: FACScan analysis of GFP expression in AAV2.GFP-transduced cells with or without bortezomib; assay type: cell-based; conditions: AAV2.GFP transduction and bortezomib co-administration
Experimental: 293T cells were grown in Dulbecco's modified Eagle's medium (Mediatech, Herndon, Va.) supplemented with 9% fetal bovine serum and 1% penicillin/streptomycin solution and transduced at a multiplicity of infection of 1. At 3-5 days after transduction, cells were harvested, fixed in phosphate-buffered saline (PBS) containing 2% formaldehyde/0.2% glutaraldehyde, and analyzed by FACScan as previously described^40.

[6] = test system: hemophilia A dogs; experiment: Tolerability of vector and bortezomib in hemophilia A dogs; assay type: in vivo, dog; conditions: no liver transaminase elevations, neurologic symptoms or changes in hematologic parameters
Experimental: Using identical AAV cFVIII vector cassettes, studies were carried out to determine whether proteasome inhibitor augmentation of the expression of large transgenes translates to the canine hemophilia A model. […] Four hemophilia A pups received the same AAV therapy and received a single I.V. dose of the proteasome inhibitor bortezomib at FDA-approved dose of (1.3 mg/m^2). […] Specifically, no liver transaminase elevations, neurologic symptoms or changes in hematologic parameters were observed.

[7] = test system: Factor VIII−/− mice; experiment: Expression from codon-optimized AAV8 factor VIII vector with or without bortezomib; assay type: in vivo, mouse; conditions: ssAAV8 3×10^10 vg/animal portal vein + bortezomib 0.5 mg/kg; persisted 12 weeks
Experimental: Factor VIII^−/− mice received 3×10^10 vg/animal single strand AAV serotype 8 vector encoding an oversized factor VIII transgene (n=5 mice per treatment group). The canine factor VIII cDNA sequence incorporated in the vector was engineered for optimal mammalian codon usage and GC nucleotide content. Mice received vector infusion to portal vein either alone or in combination with 0.5 mg/kg of proteasome inhibitor bortezomib (PI). While it has been established that codon-optimization increases expression from clotting factor VIII and IX vectors, it was not established whether PI could further augment the more efficient codon-optimized vectors.

[8] = Bortezomib dose tolerability in mice without AAV vector; assay type: in vivo
Experimental: The primary objective of these studies was to validate in small and large animal “combination therapy” using FDA approved drug bortezomib and AAV transgene vectors. The present studies describe the use of the proteasome inhibitor, bortezomib (also known as Velcade®), as this is the only proteasome inhibitor currently approved for clinical use by the FDA. Bortezomib, like most chemotherapy is dosed based on body surface area. For all large animal studies, the FDA-approved dose of (1.3 mg/m^2) was used. However preclinical toxicity data has established a safe bortezomib dose for mice of 0.5 mg per kilogram of body weight^23. […] Even though the dosing in mice was calculated on a per kilogram body weight basis vs. clinically recommended body surface area, the total dose used in mice is roughly equivalent to total dose used in dog studies described herein.

[9] = bortezomib co-administered with AAV2 cFVIII vector

Structure (SMILES)	week at which FVIII activity became detectable [1] [week]	FVIII expression increased on average vs vector alone ([1]; mouse, in vivo) [%]	effect on factor VIII expression ([1]; mouse, in vivo)	higher factor IX activity vs vector alone ([2]; bortezomib single dose co-administered with AAV8 factor IX vector) [%]	increase in factor IX expressed vs vector alone ([2]; bortezomib single dose with ssAAV2.FIX) [%]	factor VIII activity maintained for a year [1, 9]	peak factor VIII activity at week 8 [1, 9] [IU/ml]	persistence of enhanced expression without further proteasome inhibitor treatment ([1]; hemophilic mice) [year]	factor VIII expression higher on average vs AAV8.cFVIII vector alone ([1]; mouse, in vivo) [%]	enhanced factor VIII expression on average ([1]; single dose of bortezomib given with AAV2 factor VIII vector) [%]	enhanced factor VIII expression on average ([1]; single dose of bortezomib given with AAV8 factor VIII vector) [%]	liver ALT, AST and complete blood counts [3]	safe bortezomib dose for mice [4]	percentage of cells expressing transgene [5]	tolerability [6]	expression of codon-optimized factor VIII [7]	tolerability ([8]; 0.5 mg/kg, without AAV vector)	tolerability ([8]; higher dose 1.0 mg/kg)
CC(C)C[C@@H](C=O)NC(=O)[C@H](CC(C)C)NC(=O)[C@H](CC(C)C)NC(=O)OCc1ccccc1 [MG-132] (Cbz-Leu-Leu-Leu-aldehyde)	2	> 150	slightly increased factor VIII expression was observed in the first month	–	–	–	–	–	–	–	–	–	–	–	–	–	–	–
CC(C)C[C@H](NC(=O)[C@H](Cc1ccccc1)NC(=O)c1cnccn1)B(O)O [bortezomib]	1	> 550	–	~24	83	more than 3%	0.11±0.06	> 1	259	~600	~300	did not show any evidence of hepatic or hematologic toxicity	0.5 mg per kilogram of body weight	increase	well tolerated	augmented expression	tolerated the proteasome inhibitors without apparent side effect or change in hematologic parameters	occasionally mice receiving this dose displayed decreased activity and feeding
